Source: patent publication US9193695B2, “1, 2, 4-triazolone derivative and use thereof as an antagonist on the arginine-vasopressin 1B receptor” (TAISHO PHARMACEUTICAL CO., LTD., priority 2010, dated 2015)

Legend:
Human V1b receptor [1] = target: T1, Human V1b receptor (Homo sapiens, UniProt P47901); assay: Binding test for V1b receptor ([3H]AVP displacement, crude membrane preparation); parameters: expressed in transfected cells; host or cells: 293FT cells (Invitrogen), transient expression; crude membrane preparation; details: [3H]AVP 0.4 to 1 nmol/L; membranes of 293FT cells transiently expressing human V1b receptor; room temperature, 60 minutes
T1 sequence (P47901 1-424): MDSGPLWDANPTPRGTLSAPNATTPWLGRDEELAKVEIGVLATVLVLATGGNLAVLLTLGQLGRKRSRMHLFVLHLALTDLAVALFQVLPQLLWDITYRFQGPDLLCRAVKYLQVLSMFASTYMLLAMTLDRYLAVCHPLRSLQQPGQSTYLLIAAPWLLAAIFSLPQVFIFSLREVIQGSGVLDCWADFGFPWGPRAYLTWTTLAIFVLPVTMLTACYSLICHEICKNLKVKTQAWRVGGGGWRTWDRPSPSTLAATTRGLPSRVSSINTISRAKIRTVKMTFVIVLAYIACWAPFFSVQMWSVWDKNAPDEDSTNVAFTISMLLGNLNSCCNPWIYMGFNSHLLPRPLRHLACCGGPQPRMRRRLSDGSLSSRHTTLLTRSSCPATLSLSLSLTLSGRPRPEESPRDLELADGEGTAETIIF
Method in brief: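 Crude membranes from 293FT cells transiently expressing human V1b, in 50 mmol/L Tris-HCl pH 7.4 with 10 mmol/L MgCl2 and 0.1% BSA, incubated with compound (0.01 nmol/L–1 μmol/L) and [3H]AVP (0.4–1 nmol/L) for 60 min at room temperature. Filter-bound radioactivity counted; 10 μmol/L unlabeled AVP defined 0%. IC50 from dose-response curve.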

Human V1b receptor [2] = target: T1, Human V1b receptor; assay: Measurement of V1b receptor antagonistic activity (AVP-induced fluorescence, Fluo-4, FDSS); assay type: cell-based; parameters: expressed in transfected cells
Method: Measurement of V1b Receptor Antagonistic Activity
CHO cells (ATCC) stably expressing human V1b receptor were cultured in Ham's F-12 medium (containing 10% FBS and 0.5 mg/mL Geneticin). The cells were seeded the day before the test at 20,000 cells/well in a 96-well poly-D-lysine coated black plate. On the day of the test, the culture medium was removed, and a loading solution (1×HBSS, 10 mmol/L HEPES, 0.1% bovine serum albumin, 1.25 mmol/L Probenecid, 0.02% Pluronic F-127, 1.5 μmol/L Fluo-4-AM, pH 7.4) was added to each well, followed by incubation in a CO2 incubator for 1 hour. After the incubation, the loading solution was removed. A test solution (1×HBSS, 10 mmol/L HEPES, 0.1% bovine serum albumin, 1.25 mmol/L Probenecid, pH 7.4) containing any one of test compounds was added to wells, followed by incubation in a CO2 incubator for 30 minutes. The test compound was serially diluted with DMSO so as to be assayed at a final concentration of 0.1 nmol/L to 1 μmol/L. After the incubation, measurement of fluorescence intensity levels and addition of AVP were performed with Functional Drug Screening System (FDSS, Hamamatsu Photonics K.K.). […] The fluorescence level in the well not containing any test compound and AVP was defined as 0%, and the fluorescence level in the well not containing any test compound but containing AVP was defined as 100%. A dose-response curve was plotted from fluorescence levels after the addition of AVP in the presence of a test compound at various concentrations, and the 50% inhibitory concentration (IC50 value) of the compound was calculated.

[3] = CHO cells stably expressing human V1b receptor, AVP 2.5 nmol/L, 30 minutes preincubation, read-out: IC50 value (V1b receptor antagonistic activity)

**Q.** With `CC(C)NC(=O)Cn1c(-c2cccc(Cl)c2)nn(-c2ccc(CCN3CCOCC3)cc2)c1=O` [Aa-1, 2-[3-(3-Chlorophenyl)-1-{4-[2-(morpholin-4-yl)ethyl]phenyl}-5-oxo-1,5-dihydro-4H-1,2,4-triazol-4-yl]-N-(propan-2-yl)acetamide] as the compound, how does the IC50 (Human V1b receptor [1]) read?
**A.** 8.6 nM

**Q.** What about the IC50 (Human V1b receptor [2]; [3]) of the same compound?
**A.** 9.3 nM

**Q.** For `CC(C)NC(=O)Cn1c(-c2cccc(Cl)c2)nn(-c2ccc(CCN3C4CCC3CC(O)C4)cc2)c1=O` (stereo not shown) [Aa-8, 2-[3-(3-Chlorophenyl)-1-{4-[2-(3-hydroxy-8-azabicyclo[3.2.1]oct-8-yl)ethyl]phenyl}-5-oxo-1,5-dihydro-4H-1,2,4-triazol-4-yl]-N-(propan-2-yl)acetamide], which IC50 (Human V1b receptor [1]) is on record?
**A.** 4.1 nM

**Q.** And the IC50 (Human V1b receptor [2]; [3])?
**A.** 23 nM

**Q.** `CC(C)NC(=O)Cn1c(-c2cccc(Cl)c2)nn(-c2ccc(CCN3C4CCC3COC4)cc2)c1=O` [Aa-10, 2-[3-(3-Chlorophenyl)-1-{4-[2-(3-oxa-8-azabicyclo[3.2.1]oct-8-yl)ethyl]phenyl}-5-oxo-1,5-dihydro-4H-1,2,4-triazol-4-yl]-N-(propan-2-yl)acetamide] was tested. Which IC50 (Human V1b receptor [1]) did it give?
**A.** 4.7 nM

**Q.** And the IC50 (Human V1b receptor [2])?
**A.** 20 nM

**Q.** How did the IC50 (Human V1b receptor [1]) turn out when `CC(C)NC(=O)Cn1c(-c2cccc(Cl)c2)nn(-c2ccc(CCN3CCOCC3)cn2)c1=O` [Ab-2, 2-[3-(3-Chlorophenyl)-1-{5-[2-(morpholin-4-yl)ethyl]pyridin-2-yl}-5-oxo-1,5-dihydro-4H-1,2,4-triazol-4-yl]-N-(propan-2-yl)acetamide] was run?
**A.** 41 nM

**Q.** What about the IC50 (Human V1b receptor [2]; [3]) of the same compound?
**A.** 13 nM

**Q.** For `CC(C)NC(=O)Cn1c(-c2cccc(Cl)c2)nn(-c2ccc(CCN3C4CCC3COC4)cn2)c1=O` [Ab-5, 2-[3-(3-Chlorophenyl)-1-{5-[2-(3-oxa-8-azabicyclo[3.2.1]oct-8-yl)ethyl]pyridin-2-yl}-5-oxo-1,5-dihydro-4H-1,2,4-triazol-4-yl]-N-(propan-2-yl)acetamide], which IC50 (Human V1b receptor [1]) is on record?
**A.** 8.6 nM

**Q.** And the IC50 (Human V1b receptor [2]; [3])?
**A.** 29 nM

**Q.** `COc1cccc(-c2nn(-c3ccc(CCN4CCOCC4)cc3)c(=O)n2CC(=O)NC(C)C)c1` [Ba-2, 2-[3-(3-Methoxyphenyl)-1-{4-[2-(morpholin-4-yl)ethyl]phenyl}-5-oxo-1,5-dihydro-4H-1,2,4-triazol-4-yl]-N-(propan-2-yl)acetamide] was tested. Which IC50 (Human V1b receptor [1]) did it give?
**A.** 19 nM

**Q.** And the IC50 (Human V1b receptor [2]; [3])?
**A.** 30 nM

**Q.** `COc1cc(-c2nn(-c3ccc(CCN4CCOCC4)cc3)c(=O)n2CC(=O)NC(C)C)ccc1F` [Ca-2, 2-[3-(4-Fluoro-3-methoxyphenyl)-1-{4-[2-(morpholin-4-yl)ethyl]phenyl}-5-oxo-1,5-dihydro-4H-1,2,4-triazol-4-yl]-N-(propan-2-yl)acetamide] was tested. Which IC50 (Human V1b receptor [1]) did it give?
**A.** 10 nM

**Q.** And the IC50 (Human V1b receptor [2]; [3])?
**A.** 11 nM

**Q.** Which IC50 (Human V1b receptor [1]) does the source give for `COc1cc(-c2nn(-c3ccc(CCN4C5CCC4CC(O)C5)cc3)c(=O)n2CC(=O)NC(C)C)ccc1F` (stereo not shown) [Ca-3, 2-[3-(4-Fluoro-3-methoxyphenyl)-1-{4-[2-(3-hydroxy-8-azabicyclo[3.2.1]oct-8-yl)ethyl]phenyl}-5-oxo-1,5-dihydro-4H-1,2,4-triazol-4-yl]-N-(propan-2-yl)acetamide] here?
**A.** 6 nM

**Q.** What about the IC50 (Human V1b receptor [2]; [3]) of the same compound?
**A.** 16 nM

**Q.** With `COc1cc(-c2nn(-c3ccc(CCN4CCOCC4)cn3)c(=O)n2CC(=O)NC(C)C)ccc1F` [Cb-2, 2-[3-(4-Fluoro-3-methoxyphenyl)-1-{5-[2-(morpholin-4-yl)ethyl]pyridin-2-yl}-5-oxo-1,5-dihydro-4H-1,2,4-triazol-4-yl]-N-(propan-2-yl)acetamide] as the compound, how does the IC50 (Human V1b receptor [1]) read?
**A.** 17 nM

**Q.** And the IC50 (Human V1b receptor [2]; [3])?
**A.** 26 nM

**Q.** How did the IC50 (Human V1b receptor [1]) turn out when `CC(C)NC(=O)Cn1c(-c2ccc(F)c(Cl)c2)nn(-c2ccc(CCN3CCOCC3)cc2)c1=O` [Da-2, 2-[3-(3-Chloro-4-fluorophenyl)-1-{4-[2-(morpholin-4-yl)ethyl]phenyl}-5-oxo-1,5-dihydro-4H-1,2,4-triazol-4-yl]-N-(propan-2-yl)acetamide] was run?
**A.** 4.3 nM

**Q.** And the IC50 (Human V1b receptor [2]; [3])?
**A.** 6.3 nM

**Q.** Which IC50 (Human V1b receptor [1]) does the source give for `CC(C)NC(=O)Cn1c(-c2ccc(F)c(Cl)c2)nn(-c2ccc(CCN3C4CCC3COC4)cc2)c1=O` [Da-5, 2-[3-(3-Chloro-4-fluorophenyl)-1-{4-[2-(3-oxa-8-azabicyclo[3.2.1]oct-8-yl)ethyl]phenyl}-5-oxo-1,5-dihydro-4H-1,2,4-triazol-4-yl]-N-(propan-2-yl)acetamide] here?
**A.** 2.5 nM

**Q.** And the IC50 (Human V1b receptor [2]; [3])?
**A.** 6 nM

**Q.** For `CC(C)NC(=O)Cn1c(-c2ccc(F)c(Cl)c2)nn(-c2ccc(CCN3C4CCC3CC(O)C4)cc2)c1=O` (stereo not shown) [Da-6, 2-[3-(3-Chloro-4-fluorophenyl)-1-{4-[2-(3-hydroxy-8-azabicyclo[3.2.1]oct-8-yl)ethyl]phenyl}-5-oxo-1,5-dihydro-4H-1,2,4-triazol-4-yl]-N-(propan-2-yl)acetamide], which IC50 (Human V1b receptor [1]) is on record?
**A.** 4.4 nM

**Q.** And the IC50 (Human V1b receptor [2])?
**A.** 12 nM

**Q.** For `CC(C)NC(=O)Cn1c(-c2ccccc2)nn(-c2ccc(CCN3CCOCC3)cc2)c1=O` [Ga-1, 2-(1-{4-[2-(Morpholin-4-yl)ethyl]phenyl}-5-oxo-3-phenyl-1,5-dihydro-4H-1,2,4-triazol-4-yl)-N-(propan-2-yl)acetamide], which IC50 (Human V1b receptor [1]) is on record?
**A.** 114 nM

**Q.** How did the IC50 (Human V1b receptor [1]) turn out when `CC(C)NC(=O)Cn1c(-c2cccc(S(C)(=O)=O)c2)nn(-c2ccc(CCN3CCOCC3)cc2)c1=O` [Ia-1, 2-(3-[3-(Methylsulfonyl)phenyl]-1-{4-[2-(morpholin-4-yl)ethyl]phenyl}-5-oxo-1,5-dihydro-4H-1,2,4-triazol-4-yl)-N-(propan-2-yl)acetamide] was run?
**A.** 46 nM

**Q.** `COc1cccc(-c2nn(-c3ccc(CCN4CCOCC4)cc3)c(=O)n2CC(=O)NC(C)C)n1` [Ja-1, 2-[3-(6-Methoxypyridin-2-yl)-1-{4-[2-(morpholin-4-yl)ethyl]phenyl}-5-oxo-1,5-dihydro-4H-1,2,4-triazol-4-yl]-N-(propan-2-yl)acetamide] was tested. Which IC50 (Human V1b receptor [1]) did it give?
**A.** 16 nM

**Q.** Which IC50 (Human V1b receptor [1]) does the source give for `COc1cccc(-c2nn(-c3ccc(CCN4C5CCC4COC5)cc3)c(=O)n2CC(=O)NC(C)C)n1` [Ja-2, 2-[3-(6-Methoxypyridin-2-yl)-1-{4-[2-(3-oxa-8-azabicyclo[3.2.1]oct-8-yl)ethyl]phenyl}-5-oxo-1,5-dihydro-4H-1,2,4-triazol-4-yl]-N-(propan-2-yl)acetamide] here?
**A.** 20 nM
